The record followed here is paper doi:10.1101/580449v1 (biorxiv, 2019).

The target in test [1] is T1, hCST (Homo sapiens, UniProt P78382).
T1 sequence (P78382 1-337): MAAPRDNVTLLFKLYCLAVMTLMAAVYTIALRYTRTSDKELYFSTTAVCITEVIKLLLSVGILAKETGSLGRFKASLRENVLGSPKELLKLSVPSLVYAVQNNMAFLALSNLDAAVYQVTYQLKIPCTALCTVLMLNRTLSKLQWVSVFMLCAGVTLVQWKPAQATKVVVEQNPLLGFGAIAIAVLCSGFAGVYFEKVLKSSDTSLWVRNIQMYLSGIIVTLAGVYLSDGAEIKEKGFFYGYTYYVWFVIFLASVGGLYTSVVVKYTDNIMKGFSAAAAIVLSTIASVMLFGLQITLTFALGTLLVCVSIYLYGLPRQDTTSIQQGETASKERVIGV
Description: GFP-thermal shift titration. In kind it is binding.

Test [2] addresses T2, CSTZM (wildtype sequence) (Zea mays, UniProt B4FZ94).
T2 sequence (B4FZ94 1-322): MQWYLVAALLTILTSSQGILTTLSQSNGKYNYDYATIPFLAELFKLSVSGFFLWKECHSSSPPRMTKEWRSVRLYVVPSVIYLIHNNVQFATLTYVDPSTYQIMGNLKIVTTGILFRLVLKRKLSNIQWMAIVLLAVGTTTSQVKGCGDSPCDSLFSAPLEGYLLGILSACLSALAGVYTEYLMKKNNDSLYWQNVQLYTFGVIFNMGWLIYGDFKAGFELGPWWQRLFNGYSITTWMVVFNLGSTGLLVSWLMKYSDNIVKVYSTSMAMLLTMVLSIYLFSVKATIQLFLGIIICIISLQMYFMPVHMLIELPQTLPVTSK
Description: GFP-thermal shift titration. Type of test: binding.

As a reminder, the Kd is the concentration at which binding is half-saturated. For `CC(=O)N[C@H]1[C@H]([C@H](O)[C@H](O)CO)O[C@](OP(=O)(O)OC[C@H]2O[C@@H](n3ccc(N)nc3=O)[C@H](O)[C@@H]2O)(C(=O)O)C[C@@H]1O` [CMP-sialic acid], the figures for the Kd in test [1] and in test [2] were 1500 ± 300 µM and 3100 ± 200 µM, respectively.

On to `Nc1ccn([C@@H]2O[C@H](COP(=O)(O)O)[C@@H](O)[C@H]2O)c(=O)n1` [CMP], for which the Kd in test [1] and in test [2] was 40 µM in each case.
